Source: article PMC8442276, “Inter-laboratory comparison of water solubility methods applied to difficult-to-test substances” (BMC Chemistry, 2021)
≈ marks a conversion by molar mass, not a printed value. Like-named read-outs stand apart in the source and are kept apart here. Marks after values point to notes of the source that are not given here.

Tests used:
[1] = Water solubility by column elution (generator column) method, OECD 105; type: physicochemical
From the text: The column elution method as applied in this ring test is described in several regulatory test guidelines. The typical generator column consists of two concentric glass columns. The inner, narrow column is packed with test substance. The solid test substance is typically dissolved in a volatile solvent which is then pre-loaded onto an inert support phase (e.g. glass beads, diatomaceous earth, chromatographic support material) by rotary evaporation to coat the support phase and then remove the solvent. Alternatively, some practitioners load the column directly with ca. 0.5 g of neat test substance which is retained with plugs of fused silica wool. The outer column provides temperature control (20 °C) as it is connected to a recirculating water bath. Reagent grade water is pumped through the inner column contacting the test substance column at a low flow rate (i.e. < 1 mL/min). The water eluate is collected, extracted and analyzed. Consecutive fractions are collected until the concentration of test substance in water plateaus indicating equilibrium water solubility has been reached. The experiment is then repeated at a flow rate approximately one-half that applied in the first trial to confirm that equilibrium has been reached. In this ring test, two of the five participating labs applied dodecahydrotriphenylene dissolved in solvent to an inert support phase. The solvent was evaporated and the support phase coated with the test compounds. The remaining three laboratories packed the columns with neat test substance. Across the five laboratories, the column flow for the first run ranged from 0.4 to 0.8 mL/min. The volume of each fraction collected for analysis ranged from 5 to 25 mL. Details of the experimental parameters used by each of the participating labs in applying the generator column method are listed in Additional file 1: Table S1.

[2] = Water solubility by slow-stir method; type: physicochemical; conditions: for solubility: reagent grade water in sealed all-glass aspirator bottles
Method: The slow-stir water solubility method uses glass vessels, at least one liter in volume, to which reagent grade water is added. The typical bottle contains a sampling port or spigot at the bottom of the vessel and is filled to a water column height approximating that of the vessel’s tapered shoulders. Slow stir systems are depicted in Additional file 1: Figure S1. This configuration minimizes headspace but maximizes the test substance—water interface. […] The top opening of the vessels is tightly sealed to minimize volatile loss of neat test substance from the system. The excess test substance provides a supply of free product to dissolve and, in the case of volatile substances, evaporate into the headspace. The system is mixed with a minimal vortex imparting just enough energy to move the small dollop of test substance and impart a slight dimple (< 0.5 cm) below the water surface. Care is taken to mix slowly so as to avoid emulsifying the test substance. Water samples are withdrawn from the bottom sampling port of the vessel, extracted and analyzed. As necessary, specific sampling techniques for dissolved volatile organics are used including: the use of gas tight syringes, minimizing sample transfer, and reduced storage duration prior to analysis. Sampling from slow-stir systems occurs over daily or weekly intervals until analysis indicates equilibrium has been reached representing maximum water solubility. Larger test (i.e. 8–20 L) vessels are generally used when the associated analytical method requires extraction of large water sample volumes and also provide a greater surface-to-volume ratio which can be advantageous, especially for surface active compounds. For substances where the solubility is extremely low (i.e. < 10 µg/L) lengthy equilibration periods (weeks-months) may be needed.
The slow-stir water solubility method is not currently cited in existing regulatory guidelines though a number of publications describe its application to difficult-to-test liquid compounds [11–14]. In this ring test, each laboratory employed all glass aspirator bottles with sampling spigots located toward the bottom of the vessels. Water volumes ranged from 0.8 to 4 L with initial vessel headspace accounting for 5 to 20% of the entire vessel volume. n-Hexylcyclohexane loadings ranged from 0.4 to 400 mg/L. The vessels were sealed with Teflon™, polypropylene, glass or high density polyethylene screw plugs or stoppers. Water was stirred at a rate imparting little to no visible vortex and stirring rates were estimated between 80 and 250 rpm. The specific experimental parameters used by each of the participating labs in applying the slow-stir method are listed in Additional file 1: Table S2.

Mean Measured Concentration (water solubility) ([1]; Laboratory A, column packed directly with neat solid) | Mean Measured Concentration (water solubility) ([1]; Laboratory B, test substance on support) [µg/L] | Mean Measured Concentration (water solubility) ([1]; Laboratory C, test substance on support) [µg/L] | Mean Measured Concentration (water solubility) ([1]; Laboratory D, column packed directly with neat solid) | Mean Measured Concentration (water solubility) ([1]; Laboratory E, column packed directly with neat solid, statistical outlier, not included in mean) [µg/L] | Mean measured water solubility, inter-laboratory mean ([1]; column elution, 20 °C, mean of n = 4 labs (Lab E excluded as outlier)) [µg/mL] | Range of measured water solubility values across labs ([1]; column elution, 20 °C, n = 4 labs) [µg/mL] | Mean measured water solubility, inter-laboratory mean ([2]; 20 °C, mean of n = 5 labs) [µg/mL] | solubility ([2]; 20 °C, mean of n = 5 labs, read-out: Mean measured water solubility, inter-laboratory mean) [µg/mL] | solubility ([2]; 20 °C, n = 5 labs, read-out: Range of measured water solubility values across labs) [µg/mL] | solubility ([2]; 20 °C, water, thermodynamic from solid, Laboratory B, second attempt, read-out: Mean measured Concentration (water solubility)) [µg/mL] | solubility ([2]; 20 °C, water, thermodynamic from solid, Laboratory E, second attempt, read-out: Mean measured Concentration (water solubility)) [µg/mL] | solubility ([2]; water, thermodynamic from solid, Laboratory A, read-out: Mean measured Concentration (water solubility)) [µg/mL] | solubility ([2]; water, thermodynamic from solid, Laboratory B, first attempt, equilibrium not demonstrated, not included in mean, read-out: Mean measured Concentration (water solubility), first attempt) [µg/mL] | solubility ([2]; water, thermodynamic from solid, Laboratory C, read-out: Mean measured Concentration (water solubility)) [µg/mL] | solubility ([2]; water, thermodynamic from solid, Laboratory D, read-out: Mean measured Concentration (water solubility)) [µg/mL] | solubility ([2]; water, thermodynamic from solid, Laboratory E, first attempt, equilibrium not demonstrated, not included in mean, read-out: Mean measured Concentration (water solubility), first attempt) [µg/mL] | SMILES
2.8^p µg/L | 3.2 | 2.1 | 2.3^p µg/L | 0.66 | 0.0026 | 0.0021 to 0.0032 |  |  |  |  |  |  |  |  |  |  | C1CCc2c(c3c(c4c2CCCC4)CCCC3)C1 [Dodecahydrotriphenylene]
 |  |  |  |  |  |  | 0.014 | 0.014 (≈ 0.0832 µM) | 0.011 to 0.016 (≈ 0.0654 to 0.0951 µM) | 0.012 (≈ 0.0713 µM) | 0.016 (≈ 0.0951 µM) | 0.015 (≈ 0.0891 µM) | 0.0056 (≈ 0.0333 µM) | 0.014 (≈ 0.0832 µM) | 0.011 (≈ 0.0654 µM) | 0.0057 (≈ 0.0339 µM) | CCCCCCC1CCCCC1 [n-Hexylcyclohexane]
